As usually defined, the EC50 is the midpoint of the concentration-response curve. Read a low EC50 as a more potent agent. As usually defined, the Emax is the greatest response seen or fitted, relative to the assay's reference.

Consider four compounds from patent US12162879B2, “Pyridopyrimidine derivative, preparation method therefor and medical use thereof” (Jiangsu Hengrui Medicine Co., Ltd., priority 2018, dated 2024).

Common to all, as to format: cell-based
The target of one test is human TLR8 (Homo sapiens (Human), UniProt Q9NR97). Briefly: Agonist activity on human TLR8 in HEK-Blue hTLR8 stably transfected cells. The following applies: 16 hours, OD 620 nm. The protocol:
The agonist effect of the compounds of the present invention on hTLR8 expressed by the HEK-Blue™ hTLR8 stably transfected cells was determined by the following experimental method.
(§1) • 1. DMEM(Gibco, 10564-029); • 2. Fetal bovine serum (GIBCO, 10099); • 3. Trypan blue solution (Sigma, T8154-100 ML); • 4. Flexstation 3 multi-function microplate reader (Molecular Devices); • 5. HEK-Blue™ hTLR8 cell line (InvivoGen, hkb-hTLR8), or HEK-Blue™ hTLR7 cell line (InvivoGen, hkb-hTLR7); • 6. HEK-Blue detection reagent (InvivoGen, hb-det3); and • 7. Phosphate buffer solution (PBS) pH 7.4 (Shanghai Basalmedia Technologies Co., Ltd., B320). II. Experimental Procedures a. Determination of Agonist Activity on Human TLR8
(§2) A bag of HEK-Blue detection dry powder was dissolved in 50 ml of water free of endotoxin, and the solution was then placed in an incubator at 37° C. for 10 minutes followed by sterile filtration to prepare a HEK-Blue detection medium. The compound was firstly formulated into a 20 mM stock solution, then diluted with pure DMSO to a maximum concentration of 6×10^6 nM, and a total of 10 points were obtained by a 3-fold gradient dilution. The above formulated compound was firstly diluted 20-fold with the medium, then 20 μl of the diluted compound was added to each well.
The supernate was removed from the HEK-Blue™ hTLR8 cells, to which 2-5 ml of pre-warmed PBS was then added. The cells were placed in an incubator for 1-2 minutes, gently pipetted, and counted by trypan blue staining. The cells were re-suspended in the HEK-Blue detection medium to adjust the concentration to 2.2×10^5 cells/ml. 180 μl of cells was added to the above 96-well plate comprising 20 μl of the compound, and incubated at 37° C. for 16 hours.
(§3) The corresponding OD values were obtained by a microplate reader at a wavelength of 620 nm, and the EC50 values of the compounds were calculated by Graphpad Prism.

The test system of test [1] is peripheral blood mononuclear cells (PBMC). Briefly: Stimulation of IL12 secretion from PBMC (ELISA). The following applies: minimum effective concentration, human PBMC, 24 hours. The protocol:
(§4) The stimulating effect of the compounds of the present invention on the ability of secretion of IL12 and IFN γ from PBMC was determined by the following experimental method.
(§5) • 1. RMPI 1640 (Invitrogen, 11875); • 2. FBS (Gibco, 10099-141); • 3. Ficoll-Paque PREMIUM (GE, 17-5442-02); • 4. Trypan blue solution (Sigma, T8154-100 ML); • 5. SepMate™-50 (Stemcell, 15460); • 6. Bright-LineIM blood cell counter (Sigma, Z359629-1EA); • 7. 96-well cell culture plate (Corning, 3599); • 8. 96-well v-bottom plate (Corning, 3894); • 9. Human IL-12 ELISA kit (Neobioscience Technology Co., EHC152.96); • 10. Human IFN γ kit (cisbio, 62HIFNGPEG); and • 11. PHERAStar multi-function microplate reader (BMG, PHERAStar). II. Experimental Procedures
(§6) The compound was diluted with pure DMSO to a maximum concentration of 5 mM, and a total of 9 points were obtained by a 4-fold gradient dilution. 4 μl of the compound solution was then added to 196 μl of RMPI 1640 medium containing 10% FBS and mixed well. 50 μl of the mixture was taken and added to a 96-well cell culture plate.
(§7) All reagents were equilibrated to room temperature. 60 ml of blood from a healthy human and the same volume of PBS (containing 2% FBS) were added to a 250 ml culture flask, gently pipetted, mixed well and diluted. 15 ml of lymphocyte separation solution Ficoll-Paque PREMIUM was added to a 50 ml PBMC centrifuge tube SepMate™-50, followed by the addition of 30 ml of the above diluted blood. The mixture was centrifuged at 1200 g for 10 minutes at room temperature. The supernatant was taken and then centrifuged at 300 g for 8 minutes. The cells were re-suspended in the RMPI 1640 medium containing 10% FBS and counted, and the number of PBMCs was adjusted to 3.33×10^6 cells/ml. 150 μl of the cell solution was added to the plate containing the compounds, and incubated in an incubator at 37° C., 5.0% CO2 for 24 hours. The cell culture plate was placed in a centrifuge, and centrifuged at 1200 rpm for 10 minutes at room temperature. 150 μl of the supernatant was taken from each well.
The reagents in the Human IL-12 ELISA kit were equilibrated to room temperature. According to the kit's instruction, the highest concentration of the standard is 2000 pg/ml, and a total of 8 points were obtained by a 2-fold gradient dilution. The sample to be tested was diluted 20 folds. The solution was then added to a pre-coated plate at 100 μl/well. The plate was incubated at 37° C. for 90 minutes and rinsed. The […] was added at 100 μl/well, and the plate was incubated at 37° C. for 60 minutes and rinsed. HRP binding enzyme was added at 100 μl/well, and the plate was incubated at 37° C. for 30 minutes and rinsed. TMB was added, and the plate was incubated at room temperature for 5 minutes. Finally, the stop solution was added to stop the reaction, and the absorbance at 450 nm was read by the microplate reader.
(§8) The concentration of the compound that can stimulate PBMC to produce […] that is 3 times higher than the average value of the group without the compound (SD of the group without the compound) was defined as the minimum effective concentration (MEC) value of the compound.
(In general: ELISA stands for enzyme-linked immunosorbent assay.)

Test [2] has the same test system. In words: Stimulation of IFNγ secretion from PBMC. The note with it: minimum effective concentration, human PBMC, 24 hours. The protocol:
as §4, §5, §6, §7
The reagents in the Human IFN γ test kit were equilibrated to room temperature. The standard and detection antibody were prepared according to the kit's instruction under dark conditions. 16 μl of the supernatant obtained by centrifugation was added to each well, and 4 μl of freshly prepared mixed detection antibody was added to each well. The solution was mixed well by shaking, and incubated overnight in the dark at room temperature. The plate was read by the PHERAStar multi-function microplate reader.
as §8

In the next test the target is human TLR7 (Homo sapiens (Human), UniProt Q9NYK1). In words: Agonist activity on human TLR7 in HEK-Blue hTLR7 cells. The note with it: 16 hours, OD 620 nm. The protocol:
as §1, §2
The supernate was removed from the HEK-Blue™ hTLR7 cells, to which 2-5 ml of pre-warmed PBS was then added. The cells were placed in an incubator for 1-2 minutes, gently pipetted, and counted by trypan blue staining. The cells were re-suspended in the HEK-Blue detection medium to adjust the concentration to 2.2×10^5 cells/ml. 180 μl of cells was added to the above 96-well plate comprising 20 μl of the compound, and incubated at 37° C. for 16 hours.
as §3

Chain of human TLR8 (Q9NR97 27-1041): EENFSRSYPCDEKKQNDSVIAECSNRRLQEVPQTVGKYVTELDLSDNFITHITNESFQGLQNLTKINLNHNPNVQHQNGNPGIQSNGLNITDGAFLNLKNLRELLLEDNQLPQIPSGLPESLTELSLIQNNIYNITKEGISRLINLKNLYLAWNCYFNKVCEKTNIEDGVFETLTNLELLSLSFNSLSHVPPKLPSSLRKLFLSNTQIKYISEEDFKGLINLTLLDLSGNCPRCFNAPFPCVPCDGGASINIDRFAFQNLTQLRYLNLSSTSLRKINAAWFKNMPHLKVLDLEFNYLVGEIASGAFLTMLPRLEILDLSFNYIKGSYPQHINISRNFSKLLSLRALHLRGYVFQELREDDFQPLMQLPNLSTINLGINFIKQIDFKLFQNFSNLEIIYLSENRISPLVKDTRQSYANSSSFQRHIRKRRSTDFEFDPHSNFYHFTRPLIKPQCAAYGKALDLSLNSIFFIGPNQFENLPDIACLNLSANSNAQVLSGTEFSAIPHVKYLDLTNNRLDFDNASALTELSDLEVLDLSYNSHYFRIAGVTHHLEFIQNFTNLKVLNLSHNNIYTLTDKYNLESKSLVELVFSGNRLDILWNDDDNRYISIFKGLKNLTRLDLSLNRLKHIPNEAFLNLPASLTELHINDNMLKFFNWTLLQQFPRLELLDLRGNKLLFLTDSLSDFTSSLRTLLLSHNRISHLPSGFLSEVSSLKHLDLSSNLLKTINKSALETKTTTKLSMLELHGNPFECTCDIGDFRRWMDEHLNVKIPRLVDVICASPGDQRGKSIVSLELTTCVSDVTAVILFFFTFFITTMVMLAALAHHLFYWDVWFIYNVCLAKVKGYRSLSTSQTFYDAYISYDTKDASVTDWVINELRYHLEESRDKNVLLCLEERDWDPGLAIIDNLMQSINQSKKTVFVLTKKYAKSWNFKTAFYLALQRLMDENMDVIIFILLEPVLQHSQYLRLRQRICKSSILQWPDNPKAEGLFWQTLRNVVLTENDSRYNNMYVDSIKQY
Chain of human TLR7 (Q9NYK1 27-1049): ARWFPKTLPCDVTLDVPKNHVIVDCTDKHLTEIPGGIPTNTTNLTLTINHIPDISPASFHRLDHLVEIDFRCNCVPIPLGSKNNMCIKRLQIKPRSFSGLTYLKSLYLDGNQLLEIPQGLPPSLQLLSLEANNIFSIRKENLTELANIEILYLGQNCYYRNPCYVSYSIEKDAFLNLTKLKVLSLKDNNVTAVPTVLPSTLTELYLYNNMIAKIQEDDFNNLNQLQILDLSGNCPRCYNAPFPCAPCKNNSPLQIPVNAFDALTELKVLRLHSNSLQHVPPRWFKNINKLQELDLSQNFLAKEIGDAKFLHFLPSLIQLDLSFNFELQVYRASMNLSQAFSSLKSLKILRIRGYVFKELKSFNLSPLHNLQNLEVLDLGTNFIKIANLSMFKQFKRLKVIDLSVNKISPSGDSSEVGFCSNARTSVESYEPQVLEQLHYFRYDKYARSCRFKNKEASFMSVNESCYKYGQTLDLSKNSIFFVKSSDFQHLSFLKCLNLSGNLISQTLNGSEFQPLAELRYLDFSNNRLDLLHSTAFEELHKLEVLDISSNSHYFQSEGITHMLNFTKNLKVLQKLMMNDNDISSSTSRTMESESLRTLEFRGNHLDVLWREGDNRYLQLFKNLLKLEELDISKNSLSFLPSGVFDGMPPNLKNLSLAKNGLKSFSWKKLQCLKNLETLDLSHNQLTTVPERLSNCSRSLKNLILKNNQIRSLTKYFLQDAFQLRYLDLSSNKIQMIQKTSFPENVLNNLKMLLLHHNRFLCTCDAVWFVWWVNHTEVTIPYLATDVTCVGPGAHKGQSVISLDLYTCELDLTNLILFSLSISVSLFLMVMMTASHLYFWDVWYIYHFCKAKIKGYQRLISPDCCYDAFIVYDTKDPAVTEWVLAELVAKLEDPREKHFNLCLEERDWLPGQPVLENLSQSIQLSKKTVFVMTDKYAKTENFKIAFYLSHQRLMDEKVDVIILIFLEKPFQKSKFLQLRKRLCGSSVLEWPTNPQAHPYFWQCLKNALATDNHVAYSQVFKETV

On human TLR8, `CCCCC(C)(CO)Nc1nc(N)nc2cc(-c3ccc(CN4CCCC4)nc3)cnc12` (centres unmarked) [Example 1, 2-((2-Amino-7-(6-(pyrrolidin-1-ylmethyl)pyridin-3-yl)pyrido[3,2-d]pyrimidin-4-yl)amino)-2-methylhexan-1-ol] had an EC50 of 130 nM and a maximal response (Emax) of 97%.

On to `CCCCC(C)(CO)Nc1nc(N)nc2cc(-c3ccc(C4CCN(C)CC4)nc3)cnc12` (centres unmarked) [Example 3, 2-((2-Amino-7-(6-(1-methylpiperidin-4-yl)pyridin-3-yl)pyrido[3,2-d]pyrimidin-4-yl)amino)-2-methylhexan-1-ol], for which, in test [1], the “IL12 MEC” value amounted to 15 nM. For the same compound, at human TLR8, the EC50 turned out to be 100 nM and the Emax came to 104%. In test [2], the “IFNγ MEC” value is recorded as 27 nM.

As to `CCCC[C@](C)(CO)Nc1nc(N)nc2cc(-c3cnc(CN4CCN(C)CC4)nc3)cnc12` [Example 7, (R)-2-((2-Amino-7-(2-((4-methylpiperazin-1-yl)methyl)pyrimidin-5-yl)pyrido[3,2-d]pyrimidin-4-yl)amino)-2-methylhexan-1-ol], at human TLR8, a half-maximal effect (EC50) was put at 80 nM and the Emax was found to be 116%.

Take `CCCCC(C)(CO)Nc1nc(N)nc2cc(-c3ccc(CN4CCNCC4)nc3)cnc12` (centres unmarked) [Example 9, 2-((2-Amino-7-(6-(piperazin-1-ylmethyl)pyridin-3-yl)pyrido[3,2-d]pyrimidin-4-yl)amino)-2-methylhexan-1-ol]: the “IL12 MEC” value in test [1] is 24 nM. Besides, at human TLR8, the EC50 is 150 nM and the maximal effect (Emax) is 103%. On human TLR7, this compound yielded an EC50 of more than 30 µM and a maximal effect (Emax) of 5%. Besides, in test [2], the “IFNγ MEC” value was 94 nM.
